From patent publication US20230405002A1, “COMBINATIONS OF DIACYLGLYCEROL ACYLTRANSFERASE 2 INHIBITORS AND ACETYL-COA CARBOXYLASE INHIBITOR” (Pfizer Inc., priority 2020, published 2023)

How the values were obtained:
[1] = system: Western diet fed Sprague Dawley rats; experiment: Compound A / Compound D study in Western diet fed rats: fed and fasted plasma triglycerides; assay type: in vivo, rat; conditions: for reduction of plasma TG in the fed state / increase in plasma TG in the fed state: relative to vehicle-administered Western diet fed rats; for reduction of fasted plasma TG / increase in fasted plasma TG: relative to vehicle administered Western diet fed rats
Description: (§1) A randomized, vehicle-controlled, 8-parallel arm study was conducted in male Sprague-Dawley rats (Charles River (Boston, MA)) to obtain circulating and hepatic TG levels. Standard laboratory conditions were used to house 96 rats (˜200 g); they were double housed and kept under 12:12-hour reverse light-dark schedule (lights off at 8:00 AM). Rats were randomized into chow or Western diet groups and dose groups upon arrival and were given a 14-day lead-in period on either standard rat chow or Western diet prior to the start of the study. Standard Laboratory Rodent chow diet, 5053, was from LabDiet (PMI, St Louis, Missouri). Western Diet, D12079Bi, was from Research Diets (New Brunswick, NJ).
For these studies, vehicle was prepared to make a 0.5% (wt/volume) of methyl cellulose (MC, Sigma Aldrich, 274429) in deionized water.
Fed plasma analytes: Blood for determining fed plasma TG concentrations was collected 2 hours post dose (2 hours into the dark cycle) via lateral tail vein, transferred to BD Microtainer tubes coated with dipotassium ethylenediaminetetraacetic acid (K2EDTA) (PN365974), and centrifuged at 4° C. The resulting plasma samples were then analyzed on a Siemens Chemistry XPT clinical analyzer (Malven, PA) using Siemens triglycerides_2 assay reagents (ref 10335892).
Fasted plasma analytes: Blood for determining fasted plasma TG was collected after a 4 hour fast, 2 hours post-dose (2 hours into the dark cycle) via lateral tail vein, transferred to BD Microtainer tubes coated with K2EDTA (PN365974), and centrifuged at 4° C. The resulting plasma samples were then analyzed on a Siemens Chemistry XPT clinical analyzer (Malven, PA) using Siemens triglycerides 2 assay reagents (ref 10335892).

[2] = system: ACC1, FASN, SCD1, PCSK9 and SREBP-1c; experiment: Compound A / Compound D study in Western diet fed rats: hepatic lipogenic gene expression (qPCR); assay type: in vivo, rat; conditions: relative to Western diet fed vehicle treated rats
Description: as §1
Another portion of the pulverized liver was processed and analyzed for lipogenic gene expression. Rat taqman probes against ACC1, FASN, SCD1, PCSK9 and SREBP-1c were all assessed using Actb as housekeeping gene on qPCR.

[3] = system: CDAHFD fed male Wistar-Han rats; experiment: CDAHFD rat study: liver histology (αSMA IHC, Picrosirius red, Iba1 staining); assay type: in vivo; conditions: Compound A 5 mg/kg, Compound D 30 mg/kg twice daily, 6 weeks
Excerpt: Standard laboratory conditions were used to house 60 rats (˜200 g); they were double housed and kept under 12:12-hour reverse light-dark schedule (lights off at 8:00 AM). Rats were fed choline deficient and high fat diet (CDAHFD) beginning 6-weeks prior to initiation of the study. […] Animals (n=12) remaining on normal chow throughout the study and administered twice-daily vehicle were used as a control group. Blood samples were collected prior to starting compound administration and 3- and 6-week post compound administration for the assessment of circulating markers. Shearwave elastography (Aixplorer Ultimate imager, Supersoinc imagine) measurements were made at Week −3, Week 0 (prior to 1st dose), Week 3 and Week 6 to assess inflammation and fibrosis progression over time. Histology was assessed following 6-weeks of drug administration which corresponded to 12 weeks on the CDAHFD. Results are provided as an average of animals per each dosing group.
Following the 12-weeks on CDAHFD, the animals were sacrificed by CO2 asphyxiation. The right lateral, medial and left lateral lobes of the liver were harvested. Sections were taken from the left lateral, right medial and right lateral lobes and fixed in formalin and processed to paraffin blocks per animal. One section of left lateral lobe per animal was cryopreserved in optimal cutting temperature (OCT) compound. The remainder of the liver from each animal was frozen and rapidly pulverized on an aluminum block cooled in liquid N2, ensuring the tissue remained frozen throughout the pulverization. The pulverized tissue was transferred and stored at −80° C. until analysis. A portion of the pulverized liver sample from each animal was processed and analyzed for gene expression markers of fibrogenesis. Rat taqman probes against αSMA and COL1A1 were all assessed using Actb as housekeeping gene on qPCR.
The following endpoints were evaluated by qualitative histologic evaluation by a board certified veterinary pathologist and quantitative histomorphometry: hepatic stellate cell activation and differentiation into myofibroblasts by αSMA immunohistochemistry (IHC); Collagen as a correlate of fibrosis by Picrosirius Red stain. Images were analyzed using Visiopharm software. Visiopharm applications with threshold parameters were applied uniformly to identify tissue sections and to quantify the targets on each IHC (DAB (3,3′-diaminobenzidine) positive) or histochemically stained slides as percent area: stain area of interest/Total tissue ROI−whitespace)×100%. Non-parametric statistics were used to analyze data from this study. Group values were reported as mean+/− the standard error of the mean.

[4] = high dose (Compound A 10 mg/kg QD)
[5] = low dose (Compound A 1 mg/kg QD)

Row | Compound | reduction of plasma TG in the fed state ([1]; high dose (Compound A 10 mg/kg QD, Compound D 30 mg/kg BID)) | reduction of fasted plasma TG ([1]; high dose (Compound D 30 mg/kg BID)) | reduction of plasma TG in the fed state ([1]; low dose (Compound A 1 mg/kg QD, Compound D 5 mg/kg BID)) | reduction of fasted plasma TG ([1]; low dose (Compound D 5 mg/kg BID)) | hepatic lipogenic gene expression (ACC1, FASN, SCD1, SREBP1, PCSK9) [2] | reduction of Iba1 staining [3] | reduction of Picosrius red (PSR) staining [3] | reduction of αSMA staining [3] | increase in fasted plasma TG [1, 4] | increase in plasma TG in the fed state [1, 4] | increase in fasted plasma TG [1, 5] | increase in plasma TG in the fed state [1, 5]
1 | CCOc1cccnc1Oc1cncc(-c2ncc(C(=O)N[C@H]3CCOC3)cn2)c1 [Compound D, (S)-2-(5-((3-ethoxypyridin-2-yl)oxy)pyridin-3-yl)-N-(tetrahydrofuran-3-yl)pyrimidine-5-carboxamide] | 63% | 35% | 55% | 20% | decreased expression of all of the lipogenic genes | did not alter Iba1 staining | 20% | 23% | – | – | – | –
2 | COc1cc(C(=O)N2CCC3(CC2)CC(=O)c2c(cnn2C(C)C)C3)cc(-c2ccc(C(=O)O)cc2)n1 [Compound A, 4-(4-(1-isopropyl-7-oxo-1,4,6,7-tetrahydrospiro[indazole-5,4′-piperidine]-1′-carbonyl)-6-methoxypyridin-2-yl)benzoic acid] | – | – | – | – | trended to further increase | 15% | 26% | 41% | 1.7 fold | 1.3 fold | 2.4 fold | 1.7 fold
